Laboratory results as given in patent US12116421B2, “Peptide-based Dopa containing adhesive gels” (KING ABDULLAH UNIVERSITY OF SCIENCE AND TECHNOLOGY, priority 2020, dated 2024).
Where a SMILES comes first, the peptide text is derived from it. [ ]: non-standard residue; d: D form. Dopa = N[C@@H](Cc1ccc(O)c(O)c1)C(=O)O; Cha = N[C@@H](CC1CCCCC1)C(=O)O

Assays:
[1] = AFM topography of peptide nanofibres; assay type: physicochemical; details: 13 mM in MilliQ water
Protocol: In one embodiment, DoIIZK and IIZKDo form nice long and twisted fibers whereas, but IIZDoK peptide performs scarcely even at the concentration of 10 mg/mL. The photos in FIG. 11 has a scalebar of 200 nm, while the photos in FIG. 12 has a scalebar of 400 nm. The peptides shown in FIGS. 11 and 12 are dissolved in MilliQ® water at the concentration of 13 mM. According to the AFM photos in FIGS. 15 and 16 and 3D plot shown in FIG. 11, peptides DoIIZK, IIZDoK and IIZKDo show the following structural properties: • DoIIZK: helical pitch of 24.75±1.46 nm; maximum diametre 1.01±0.14 nm; minimum diametre: 0.66±0.09 nm. • IIZDoK: helical pitch of 8.63±0.49 nm; maximum diametre 1.66±0.19 nm; minimum diametre: 1.16±0.17 nm. • IIZKDo: helical pitch of 24.21±1.24 nm; maximum diametre 3.87±0.28 nm; minimum diametre: 3.09±0.16 nm.
AFM topography measurements were performed on a Dimension Icon SPM (Bruker®). The samples were prepared as follows: peptides were dissolved at 13 mM concentration in MilliQ® water; after 30 minutes, 20 μl of these solutions were dropped on freshly cleaved mica sheets and immediately dried with an N2 stream. Measurements were immediately performed in tapping mode in air by the use of an AFM probe AC_240TS_R3 (Olympus®) with nominal free oscillation at roughly 70 kHz and a nominal spring constant of 2 N/m. The probe was calibrated by contact-free method.^54 Free oscillation amplitude was set at 200 mV with a 5% damping during tapping mode measurement. AFM adhesion measurements were performed on a JPK Nanowizard™ III mounted on Olympus® IX-81 inverted optical microscope. A mica sheet was glued one day before the experiment with double component epoxy glue to a glass slide and enclosed in a plastic o-ring provided by the JPK company for liquid measurements. Each peptide was dissolved in MilliQ® water at a concentration of 13 mM and mixed gently. Starting with the measurement in MilliQ® water, 50 μL of the solution were dropped on the freshly cleaved mica sheet within 5 minutes from the preparation of the solution and let equilibrate for 10 minutes. After, the excess solution was removed by pipetting and discarded. Then 1 mL of MilliQ® water was added gently from the side and after 5 minutes, the sample was rinsed 3 times by additional 1 mL MilliQ® water. Finally, the sample was measured by AFM force spectroscopy (Quantitative imaging mode) with additional 1 mL MilliQ® water. The MilliQ® water was exchanged after the measurement alternatively with a water solution containing 137 mM NaCl or 10 mM Phosphate ions (a combination of Na2HPO4·7H2O and NaH2PO4·H2O to reach pH 7.4). After performing the force spectroscopy map in these two different solutions, eventually, the liquid was exchanged with 1×PBS pH 7.4. To verify the presence of eventual fibers, after the measurement, the excess solution was removed by pipetting and discarded. The sample was then rinsed two times with 1 mL MilliQ® water and dried overnight in a vacuum chamber. The topography AFM imaging was performed using AC-240TS_R3 AFM probes in tapping mode in the JPK AFM.

[2] = tested on: mouse myoblast cells (C2C12); assay: Cytocompatibility of peptide nanogels, 3D culture, MTT and live/dead staining; assay type: cell-based
Protocol: In one embodiment, cytocompatibility of the peptide nanogels was evaluated using mouse myoblast cells (C2C12). After 24 hours of incubation, cell proliferation was tested with DoIIZK, IIZDoK, IIZKDo, IIZ(KDo)2 and IIZ(KDo)3 at a concentration of 3 mg/mL to evaluate biocompatibility. The MTT (3-(4,5-dimethylthiazol-2-yl)-2,5-diphenyltetrazolium bromide) assay was used in order to quantify the number of viable cells. In one embodiment, a standard curve for a known number of cells was also plotted. In one embodiment, the test results were compared to the positive control 2D culture. A positive indication of cytocompatibility would be the survival of the cells following incubation with the peptides. For comparison, peptides DoIIZK, IIZDoK, IIZKDo, IIZ(KDo)2 and IIZ(KDo)3 were tested as part of the study. The cytocompatibilty of all peptides tested was evaluated by quantifying the survival cells by visualising the live/dead cells using calcein AM and Ethidium bromide staining.
Poli-D Lysine (PDL) was used for 2D control. The scalebar in FIG. 35 is 200 μm. Cytocompatibility of all peptides was evaluated by quantifying the survival cells by visualising the live/dead cells using calcein AM and Ethidium homodimer staining. The live cells are stained green by calcein AM, while the dead cells are stained red by Ethidium homodimer.
For mouse myoblast cells (C2C12) culture expansion, C2C12 cells were cultured either in a T175 or T75 culture flask in complete DMEM media (10% FBS and 1% P/S). The cells were placed in a humidified incubator at 37° C., with 95% air and 5% CO2. Then they were subcultured using trypsin at approximately 80% confluence. Fresh culture media was added every 48 h to each well, after removing the previous media.
For 3D culture of mouse myoblast cells in peptide hydrogels and cell viability assay, C2C12 cells were encapsulated in peptide hydrogels in a 96-well plate.^61 Briefly, peptide solutions DopaIIZK, IIZDopaK, IIZKDopa (3 mg/mL) were added to 40 μL/well. Mouse myoblast cells (30,000 cells/well) that were re-suspended in 2×PBS were then, mixed gently with the peptide solutions. The gelation time was 1-3 min for all 5 peptides. Subsequently, the culture medium was added to the wells.
The viability of 3D cultured cells was assessed using the LIVE/DEAD Viability/Cytotoxicity Kit (ThermoFisher®, USA)^11. Calcein acetoxymethyl ester (Calcein-AM) is used to detect viable cells and ethidium homodimer-I (EthD-I) is used to detect dead cells. Briefly, staining with 2 μM of Calcein-AM and 4 μM of EthD-1 is performed after washing with Dulbecco's phosphate-buffered saline (D-PBS). After 30 minutes incubation, the staining solution was discarded, and 1×D-PBS was added to each well before imaging. Stained cells were imaged with an inverted confocal microscope (Zeiss® LSM 710 Inverted Confocal Microscope, Germany) or ZEISS® fluorescent microscope.

Compound	helical pitch [1] [nm]	maximum diametre [1] [nm]	minimum diametre [1] [nm]	biocompatibility with C2C12 cells [2]	cell viability / toxicity [2]	metabolic activity of cells versus 2D cultures [2]	time cells stay metabolically active in nanogel [2]
CC[C@H](C)[C@H](NC(C)=O)C(=O)N[C@H](C(=O)N[C@@H](CC1CCCCC1)C(=O)N[C@@H](CCCCN)C(=O)N[C@@H](Cc1ccc(O)c(O)c1)C(N)=O)[C@@H](C)CC [IIZKDo, Ac-Ile-Ile-Cha-Lys-Dopa-NH2] (Ac-II[Cha]K[Dopa]-NH2)	24.21±1.24	3.87±0.28	3.09±0.16	biocompatible	good viability	consistently comparable to 2D cultures	metabolically active for up to day 21
CC[C@H](C)[C@H](NC(C)=O)C(=O)N[C@H](C(=O)N[C@@H](CC1CCCCC1)C(=O)N[C@@H](Cc1ccc(O)c(O)c1)C(=O)N[C@@H](CCCCN)C(N)=O)[C@@H](C)CC [IIZDoK, Ac-Ile-Ile-Cha-Dopa-Lys-NH2] (Ac-II[Cha][Dopa]K-NH2)	8.63±0.49	1.66±0.19	1.16±0.17	biocompatible	good viability	consistently comparable to 2D cultures	metabolically active for up to day 21
CC[C@H](C)[C@H](NC(=O)[C@H](Cc1ccc(O)c(O)c1)NC(C)=O)C(=O)N[C@H](C(=O)N[C@@H](CC1CCCCC1)C(=O)N[C@@H](CCCCN)C(N)=O)[C@@H](C)CC [DoIIZK, Ac-Dopa-Ile-Ile-Cha-Lys-NH2] (Ac-[Dopa]II[Cha]K-NH2)	24.75±1.46	1.01±0.14	0.66±0.09	biocompatible	good viability	consistently comparable to 2D cultures	metabolically active for up to day 21
